Results from US11345659B2, “Pipecolic esters for inhibition of the proteasome” (THE BOARD OF REGENTS OF THE UNIVERSY OF TEXAS SYSTEM, priority 2018, dated 2022).

Experiments:
immunoproteasomes = immunoproteasomes (Homo sapiens, UniProt P25787+P25789); test: Activity of housekeeping and immunoproteasomes activated with Rpt5-derived peptide; type: biochemical
Excerpt: Immuno and housekeeping forms are serving distinct physiological functions. The clinically used competitive inhibitors do target them with a similar efficacy; however such outcome is not obvious with allosteric inhibitors such as compound 3. Referring to FIG. 11, the relative activities of the proteasome forms are shown, activated with the Rpt5-derived peptide and treated with compound 3.

20 S proteasome = biological target: T1, 20 S proteasome (Homo sapiens, UniProt P25787+P25789); test: T-L peptidase activity of tRpt5-activated 20 S core; type: biochemical; details: core activated with tRpt5
T1 construct: purified from erythrocytes; purchased Enzo Life Sciences, Inc. (Farmingdale, N.Y.); host or cells: human erythrocytes

FKBP12 = biological target: T2, FKBP12 (Homo sapiens, UniProt P62942); test: Suppression of rapamycin inhibition of S6 phosphorylation by competing for FKBP12; type: cell-based; details: RPMI 8226, 24 hours; FK506 10 μM, compound 3 and B1 0.2 μM, with rapamycin
T2 construct: endogenous in cells; host or cells: RPMI 8226 (ATCC)
T2 sequence (P62942 whole entry): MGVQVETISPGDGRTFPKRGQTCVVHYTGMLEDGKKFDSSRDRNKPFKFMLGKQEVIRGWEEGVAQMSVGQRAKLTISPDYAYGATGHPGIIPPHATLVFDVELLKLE
Method: Human multiple myeloma RPMI 8226 cells were purchased from American Type Culture Collection (ATCC; Manassas, Va.) and cultured according to ATCC specifications. […] The content of live cells was determined by excluding the Trypan Blue-stained cells. The cells were counted with TC20 Automated Cell Counter (Bio-Rad Laboratories, Hercules, Calif.) and EC50 was calculated with Origin Pro 2017 (OriginLab Corporation, Northampton, Mass.). When indicated, the cells were harvested, washed twice in PBS, resuspended in dilution buffer and stored in −80° C. To prepare crude lysates the thawed preparations were vortexed with glass beads and centrifuged for 5 min 5,000×g (4° C.). The supernate was centrifuged for 20 min 14,000×g. The resulting supernate was used as “crude lysate.” SDS-PAGE was carried in 12% acrylamide, Tris-glycine gels from Invitrogen. Chameleon Duo (Li-Cor) and Rainbow RPN800E (GE Healthcare) molecular weight standards were separated on each gel alongside lysates. The proteins were transferred to nitrocellulose membrane in a semi-dry system. The membranes were probed with specific primary antibodies from Life Technologies (S6, PS6) and Li-Cor (COX IV), and then with secondary antibodies from Li-Cor. In each experiment visualization of S6, PS6 and COX IV was performed on the same membrane with Odyssey Infrared Imaging System (Li-Cor). […]

SMILES: COc1cc(CCCOC(=O)[C@@H]2CCCCN2C(=O)OCc2ccccc2)cc(OC)c1OC [Compound 3, 1-benzyl 2-(3-(3,4,5-trimethoxyphenyl)propyl) (S)-piperidine-1,2-dicarboxylate]
- inhibition of housekeeping versus immunoproteasomes (immunoproteasomes): inhibits both housekeeping and immunoproteasomes with similar efficacy
- effect on T-L peptidase (20 S proteasome): not affected
- suppression of rapamycin inhibition of S6 phosphorylation (FKBP12 binding) (FKBP12): did not mimic the actions of FK506
